[invAb] = inverted abasic unit; m = 2'-O-methyl; r = 2'-OH (RNA); f = 2'-fluoro
Key:
GATA3 mRNA [1] = assay: GATA3 mRNA knock-down (Taqman qRT-PCR) after RNAiMax transfection of human MCF7 cells; screen and IC50 dose response; assay type: cell-based; details: 10 nM siNA, MCF7 cells, 24 hrs, average of 3 experiments
Protocol: MCF7 (human; ATCC cat# HTB-22): Cells were cultured at 37° C. in the presence of 5% CO2 and grown in Eagle's Minimum Essential medium with supplemented with fetal bovine serum at a final concentration of 10% and 100 μg/mL of streptomycin and 100 U/mL penicillin.
(§1) Cells were plated in all wells of a tissue-culture treated, 96-well plate at a final count of 5000 cells/well in 100 μL of the appropriate culture media. The cells were cultured for 24 hours after plating at 37° C. in the presence of 5% CO2.
(§2) After 24 hours, complexes containing siNA and RNAiMax were created as follows: A solution of RNAiMax diluted 33-fold in OPTI-MEM was prepared. In parallel, solutions of the siNAs for testing were prepared to a final concentration of 120 nM in OPTI-MEM. After incubation of RNAiMax/OPTI-MEM solution at room temperature for 5 min, an equal volume of the siNA solution and the RNAiMax solution were added together for each of the siNAs.
(§3) This solution was incubated at room temperature for 20 minutes. After incubation, 20 uL of the solution was added to each of the relevant wells. The final concentration of siNA in each well was 10 nM and the final volume of RNAiMax in each well was 0.3 ul.
(§4) The time of incubation with the RNAiMax-siNA complexes was 24 hours and there was no change in media between transfection and harvesting, unless otherwise indicated.
(§5) RNA was extracted from a 96-well plate using the TaqMan® Gene Expression Cells-to-CT™ Kit (Cat#4399002) with a modified protocol. Briefly, a 60 uL (1 plate) or 110 uL (2 plates) of the Lysis Solution with DNase I was dispensed into each well of the Lysis Buffer Plate (twin.tec full skirt plate). The lysis buffer and stop plates were stored at 4° C. until the cells were washed.
(§6) The plate was spun at 1100 rpm for 5 minutes. The culture medium was aspirated and discarded from the wells of the culture plate. The lysis was performed automatically using a BioMek FX instrument and method. After the Biomek method was completed, the lysis plate was incubated for 2 min. at room temperature. The lysis plate can be stored for 2 hours at 4° C., or at −20° C. or −80° C. for two months.
(§7) Each well of the reverse transcription plate required 10 uL of 2× reverse transcriptase Buffer, 1 uL of 20× reverse transcription enzyme and 2 uL of nuclease-free water. The reverse transcription master mix was prepared by mixing 2× reverse transcription buffer, 20× reverse transcription enzyme mix, and nuclease-free water. 13 uL of the reverse transcription master mix was dispensed into each well of the reverse transcription plate (semi-skirted). A separate reverse transcription plate was prepared for each cell plate. The plate was loaded onto a Biomek NX or Biomek FX Dual-96 and the Biomek method was run. The program is programmed to automatically added 7 uL of lysate from the cell lysis procedure described above into each well of the reverse transcription plate. The plate is sealed and spun on a centrifuge (1000 rpm for 30 seconds) to settle the contents to the bottom of the reverse transcription plate. The plate is placed in a thermocycler at 37° C. for 60 min, 95° C. for 5 min, and 4° C. until the plate is removed from the thermocycler. Upon removal, if not used immediately, the plate was frozen at −20° C.
(§8) A series of probes and primers were used to detect the various mRNA transcripts of the genes of β-Actin (human cell line only), and of GATA3 and GAPDH in mouse and human cell lines. All Taqman probes and primers for the experiments here-in described were supplied as pre-validated sets by Applied Biosystems, Inc. (see Table 2).
(§9) The assays were performed on an ABI 7900 instrument, according to the manufacturer's instructions. A TaqMan Gene Expression Master Mix (provided in the Cells-to-CT™, Applied Biosystems, Cat #4399002) was used. The PCR reactions were carried out at 50° C. for 2 min, 95° C. for 20 min followed by 40 cycles at 95° C. for 15 secs and 60° C. for 1 min. […]

GATA3 mRNA [2] = assay: GATA3 mRNA knock-down (Taqman qRT-PCR) after RNAiMax transfection of mouse RAG cells; assay type: cell-based; details: 10 nM siNA, 24 hrs, average of 2 experiments
Protocol: RAG (murine; ATCC cat# CCL-142): Cells were cultured at 37° C. in the presence of 5% CO2 and grown in Eagle's Minimum Essential medium with supplemented with 10% of fetal bovine serum, 100 μg/mL of streptomycin, and 100 U/mL penicillin.
as §1, §2, §3, §4, §5, §6, §7, §8, §9

In the case of “30262-DC: GATA3 siNA duplex, site 1818: sense B ccGAuGcAcccGccAuccA TTB (SEQ 77), antisense UGGAuGGcGGGuGcAucGGUU (SEQ 78) (sense CCGAUGCACCCGCCAUCCATT; antisense UGGAUGGCGGGUGCAUCGGUU; chemistry not fully specified)”, the “% KD Human” value (GATA3 mRNA [1]) is reported as 10 ± 11% and the “% KD Mouse” value (GATA3 mRNA [2]) is reported as 1 ± 7%.

In the case of “30264-DC: GATA3 siNA duplex, site 690: sense B GAGGAGGuGGAuGuGcuuu TTB (SEQ 81), antisense AAAGcAcAuccAccuccucUU (SEQ 82) (sense GAGGAGGUGGAUGUGCUUUTT; antisense AAAGCACAUCCACCUCCUCUU; chemistry not fully specified)”, the “% KD Human” value (GATA3 mRNA [1]) is reported as −20 ± 12% and the “% KD Mouse” value (GATA3 mRNA [2]) is reported as −18 ± 0%.

In the case of “30265-DC: GATA3 siNA duplex, mouse site 2025: sense B GcccGAAAGcGAcAGAucu TTB (SEQ 83), antisense AGAucuGucGcuuucGGGcUU (SEQ 84) (sense GCCCGAAAGCGACAGAUCUTT; antisense AGAUCUGUCGCUUUCGGGCUU; chemistry not fully specified)”, the “% KD Human” value (GATA3 mRNA [1]) is reported as −8 ± 13% and the “% KD Mouse” value (GATA3 mRNA [2]) is reported as 58 ± 0%.

For “30266-DC: GATA3 siNA duplex, mouse site 1258: sense B cccuAuGuGcccGAGuAcA TTB (SEQ 85), antisense UGUAcucGGGcAcAuAGGGUU (SEQ 86) (sense CCCUAUGUGCCCGAGUACATT; antisense UGUACUCGGGCACAUAGGGUU; chemistry not fully specified)”, the “% KD Human” value (GATA3 mRNA [1]) was −3 ± 5% and the “% KD Mouse” value (GATA3 mRNA [2]) was 8 ± 5%.

In the case of “30267-DC: GATA3 siNA duplex, mouse site 1324: sense B GGGuucGGAuGuAAGucGA TTB (SEQ 87), antisense UCGAcuuAcAuccGAAcccUU (SEQ 88) (sense GGGUUCGGAUGUAAGUCGATT; antisense UCGACUUACAUCCGAACCCUU; chemistry not fully specified)”, the “% KD Human” value (GATA3 mRNA [1]) is reported as −13 ± 15% and the “% KD Mouse” value (GATA3 mRNA [2]) is reported as 40 ± 1%.

With “30268-DC: GATA3 siNA duplex, mouse site 1533: sense B GAcAuccuGcGcGaacuGu TTB (SEQ 89), antisense ACAGuucGcGcAGGAuGucUU (SEQ 90) (sense GACAUCCUGCGCGAACUGUTT; antisense ACAGUUCGCGCAGGAUGUCUU; chemistry not fully specified)” the “% KD Human” value (GATA3 mRNA [1]) was 16 ± 3% and the “% KD Mouse” value (GATA3 mRNA [2]) was 17 ± 2%.

With “30269-DC: GATA3 siNA duplex, mouse site 1449: sense B cuGcGGAcucuAccAuAAA TTB (SEQ 91), antisense UUUAuGGuAGAGuccGcAGUU (SEQ 92) (sense CUGCGGACUCUACCAUAAATT; antisense UUUAUGGUAGAGUCCGCAGUU; sense: DNA at AGT, 2'-fluoro at CU, [invAb] at 5' end, 3' end, backbone not given here; antisense: sugars from the 5' end rrrmfmmfmmmmfffmfmmmm, backbone not given here)” the “% KD Human” value (GATA3 mRNA [1]) was −36 ± 9% and the “% KD Mouse” value (GATA3 mRNA [2]) was 83 ± 0%.

With “30270-DC: GATA3 siNA duplex, mouse site 1960: sense B ccAAGuGuGcGAAGAGuuc TTB (SEQ 93), antisense GAAcucuucGcAcAcuuGGUU (SEQ 94, row printed as 30269-DC) (sense CCAAGUGUGCGAAGAGUUCTT; antisense GAACUCUUCGCACACUUGGUU; chemistry not fully specified)” the “% KD Human” value (GATA3 mRNA [1]) was −25 ± 24% and the “% KD Mouse” value (GATA3 mRNA [2]) was 69 ± 4%.

With “30271-DC: GATA3 siNA duplex, mouse site 1620: sense B GuAcuAcAAGcuucAuAAu TTB (SEQ 95), antisense AUUAuGAAGcuuGuAGuAcUU (SEQ 96) (sense GUACUACAAGCUUCAUAAUTT; antisense AUUAUGAAGCUUGUAGUACUU; chemistry not fully specified)” the “% KD Human” value (GATA3 mRNA [1]) was 10 ± 11% and the “% KD Mouse” value (GATA3 mRNA [2]) was 70 ± 0%.
